Measured values from US11931424B2, “Combination MCL-1 inhibitors with anti-body drug conjugates” (Gilead Sciences, Inc., priority 2021, dated 2024).

Test system: panel of breast cancer cell lines
Assay: Compound A with targeted agents and chemotherapies, 72-hour in vitro proliferation assays
Assay type: cell-based
Conditions: compound A × partner, 72-hour proliferation

Compound: N.N.[Cl][Pt][Cl] [Cisplatin]
- Best CI (AU565 cell line): 0.79
- Bliss Volume (AU565 cell line): 7.67
- HSA volume (AU565 cell line): −6.49
- Loewe Volume (AU565 cell line): −5.19
- Synergy Score (AU565 cell line): 1.66
- Best CI (BT-20 cell line): 0.90
- Bliss Volume (BT-20 cell line): 13.49
- HSA volume (BT-20 cell line): −0.68
- Loewe Volume (BT-20 cell line): −2.71
- Synergy Score (BT-20 cell line): 2.27
- Best CI (BT-474 cell line): 0.47
- Bliss Volume (BT-474 cell line): −2.63
- HSA volume (BT-474 cell line): −4.63
- Loewe Volume (BT-474 cell line): −4.42
- Synergy Score (BT-474 cell line): 2.85
- Best CI (BT-549 cell line): 1.01
- Bliss Volume (BT-549 cell line): 7.35
- HSA volume (BT-549 cell line): 2.86
- Loewe Volume (BT-549 cell line): 4.16
- Synergy Score (BT-549 cell line): 6.80
- Best CI (CAL-51 cell line): 0.48
- Bliss Volume (CAL-51 cell line): 7.18
- HSA volume (CAL-51 cell line): 4.36
- Loewe Volume (CAL-51 cell line): 6.98
- Synergy Score (CAL-51 cell line): 9.30
- Best CI (CAL-85-1 cell line): 1.09
- Bliss Volume (CAL-85-1 cell line): 6.84
- HSA volume (CAL-85-1 cell line): 4.63
- Loewe Volume (CAL-85-1 cell line): 4.66
- Synergy Score (CAL-85-1 cell line): 6.29
- Best CI (CAL-120 cell line): 0.19
- Bliss Volume (CAL-120 cell line): 1.51
- HSA volume (CAL-120 cell line): 0.51
- Loewe Volume (CAL-120 cell line): 1.48
- Synergy Score (CAL-120 cell line): 1.13
- Best CI (CAL-148 cell line): 0.13
- Bliss Volume (CAL-148 cell line): 19.20
- HSA volume (CAL-148 cell line): 19.03
- Loewe Volume (CAL-148 cell line): 18.76
- Synergy Score (CAL-148 cell line): 37.06
- Best CI (CAMA-1 cell line): 0.23
- Bliss Volume (CAMA-1 cell line): 16.63
- HSA volume (CAMA-1 cell line): 9.61
- Loewe Volume (CAMA-1 cell line): 9.28
- Synergy Score (CAMA-1 cell line): 18.49
- Best CI (DU-4475 cell line): 0.29
- Bliss Volume (DU-4475 cell line): 14.10
- HSA volume (DU-4475 cell line): 5.48
- Loewe Volume (DU-4475 cell line): 5.54
- Synergy Score (DU-4475 cell line): 7.00
- Best CI (EVSA-T cell line): 0.39
- Bliss Volume (EVSA-T cell line): 20.06
- HSA volume (EVSA-T cell line): 3.60
- Loewe Volume (EVSA-T cell line): 1.90
- Synergy Score (EVSA-T cell line): 2.53
- Best CI (HCC38): 0.60
- Best CI Level (HCC38): 115
- Bliss Volume (HCC38): 8.46
- HSA volume (HCC38): 3.08
- Loewe Volume (HCC38): 2.06
- Synergy Score (HCC38): 6.47
- Best CI (HCC70): 0.45
- Best CI Level (HCC70): 175
- Bliss Volume (HCC70): 18.00
- HSA volume (HCC70): 4.42
- Loewe Volume (HCC70): 2.24
- Synergy Score (HCC70): 9.16
- Best CI (HCC1143 cell line): 0.39
- Bliss Volume (HCC1143 cell line): −0.20
- HSA volume (HCC1143 cell line): −5.78
- Loewe Volume (HCC1143 cell line): −3.31
- Synergy Score (HCC1143 cell line): 2.45
- Best CI (HCC1569): 0.43
- Best CI Level (HCC1569): 25
- Bliss Volume (HCC1569): 1.33
- HSA volume (HCC1569): −1.41
- Loewe Volume (HCC1569): −2.74
- Synergy Score (HCC1569): 1.82
- Best CI (HCC1806): 0.22
- Best CI Level (HCC1806): 70
- Bliss Volume (HCC1806): 8.46
- HSA volume (HCC1806): 3.81
- Loewe Volume (HCC1806): 5.93
- Synergy Score (HCC1806): 7.76
- Best CI (HCC1937): 1.07
- Best CI Level (HCC1937): 105
- Bliss Volume (HCC1937): 1.32
- HSA volume (HCC1937): −1.15
- Loewe Volume (HCC1937): −0.59
- Synergy Score (HCC1937): 1.75
- Best CI (HCC1954): 0.84
- Best CI Level (HCC1954): 180
- Bliss Volume (HCC1954): 5.89
- HSA volume (HCC1954): −0.89
- Loewe Volume (HCC1954): −1.88
- Synergy Score (HCC1954): 5.58
- Best CI (HCC2218): 0.54
- Best CI Level (HCC2218): 165
- Bliss Volume (HCC2218): 9.34
